Measured values from PMC10520499, “Next step in the development of mesoprogestins: the preclinical profile of EC313” (Frontiers in Endocrinology, 2023).
“And” between values parts separate entries of the source, which are not always exact repeats. Equal values may be shown once.

Assays:
GR = target: T1, GR (Homo sapiens, UniProt P04150); experiment: Competitive binding, full length human glucocorticoid receptor; design: made in house; host or cells: HI (Hi5) insect cells, baculovirus; cellular lysate
T1 sequence (P04150 1-777): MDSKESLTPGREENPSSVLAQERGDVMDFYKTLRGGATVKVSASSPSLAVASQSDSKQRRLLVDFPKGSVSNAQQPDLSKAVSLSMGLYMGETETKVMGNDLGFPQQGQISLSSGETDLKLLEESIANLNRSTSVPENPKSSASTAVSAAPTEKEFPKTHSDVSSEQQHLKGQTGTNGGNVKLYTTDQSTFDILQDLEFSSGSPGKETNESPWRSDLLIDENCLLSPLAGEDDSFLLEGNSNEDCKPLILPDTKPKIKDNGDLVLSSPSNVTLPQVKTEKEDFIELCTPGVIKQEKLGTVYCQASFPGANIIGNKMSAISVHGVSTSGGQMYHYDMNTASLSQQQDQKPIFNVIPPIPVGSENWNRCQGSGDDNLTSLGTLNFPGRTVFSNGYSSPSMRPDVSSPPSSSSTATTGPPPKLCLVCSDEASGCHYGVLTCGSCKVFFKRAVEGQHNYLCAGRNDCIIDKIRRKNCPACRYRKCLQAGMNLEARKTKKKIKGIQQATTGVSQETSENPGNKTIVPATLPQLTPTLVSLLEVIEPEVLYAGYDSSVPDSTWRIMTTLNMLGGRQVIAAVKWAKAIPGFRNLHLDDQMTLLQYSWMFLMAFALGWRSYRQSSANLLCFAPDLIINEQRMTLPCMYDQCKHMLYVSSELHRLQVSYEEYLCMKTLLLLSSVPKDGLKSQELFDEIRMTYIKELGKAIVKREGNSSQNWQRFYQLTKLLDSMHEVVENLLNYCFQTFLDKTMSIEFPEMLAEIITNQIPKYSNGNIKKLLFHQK
Description: (§1) The study aimed to characterize the competitive binding profile of EC313 to relevant human nuclear receptors. For the assays, commercially available ‘ligand binding domain’ proteins were purchased (Thermo Fisher Scientific). In addition, the full-length receptor proteins were expressed in transfected HI insect cells using the `Bac-to-bac Baculovirus expression system´ (Thermo Fisher Scientific). Cellular lysates served as receptor preparation. Receptor protein preparations were incubated with tritiated reference ligands and EC313 or reference steroids at concentrations between 0.1 and 1000 nM for 2h at 4°C to reach equilibrium. Subsequently, unbound steroids were adsorbed to dextran-coated charcoal (Sigma Aldrich), separated by filtration, and the remaining radioactivity was quantified in a ß-counter (Perkin Elmer). Displacement curves were fitted using the GraphPad Prism 7 free version to obtain EC50 values. Relative binding affinity (RBA [%], (C50ref/C50test)*100) and the competition coefficient (C50test/C50ref) were used to describe the relative binding potency of EC313 compared to the reference ligands.

[1] = tested on: orchiectomized male Wistar rats; experiment: Hershberger assay; assay type: in vivo, rat; settings: 3, 10 and 30 mg/animal/day s.c., 7 days; ± Testosterone propionate 1 mg/animal/day
Description: To test EC313 for potential androgenic or anti-androgenic potential, the Hershberger assay was used. Orchiectomized male Wistar rats were treated for 7 consecutive days with daily subcutaneous injections of EC313 (3, 10, and 30 mg/animal/day).
The potential anti-androgenic activity was assessed by co-administration of Testosterone propionate (TP; 1 mg/animal/day s.c.), which also served as the positive control, and EC313. The vehicle served as the negative control. One day after the last treatment, animals were sacrificed and the prostate gland and the seminal vesicles were removed and weighed. The relative weight of these organs, expressed as mg/100 g body weight, served as the endpoint.

human PRA = human PRA (Homo sapiens, UniProt P06401); experiment: PR-A transactivation (CHO, MMTV-LUC); assay type: cell-based
Description: Due to the existence of two isoforms of the PR receptor (PRA and PRB) and the fact that both of them control expression of a largely different set of genes, separate assays for each of them were carried out.
In order to develop the transfection assay, plasmids were generated and isolated. Plasmids included vectors with the coding sequences for the receptor as well as the reporter gene, respectively. The vector pcDNA3.1 coding sequence for the full length of human PRA and PRB (cDNA ORF clone in pcDNA3.1+/C-(K)-DYK) was used as an expression vector for PR isoform A and B, respectively. Vector pGL4.36 coding for the progesterone responsive element MMTV and firefly luciferase reporter vector [luc2P/Hygro] were used as reporter systems (pGL4.36-MMTV/LUC).
A sufficient transactivation signal was achieved using stable transfection for the human PRA and PRB receptors and transient transfection for the MMTV-luciferase reporter gene. Therefore, the first stable transfection with the receptor of interest was performed. Thus, 0.5x10^6 CHO cells per well were plated into 6-well plates in transfection medium w/o antibiotics (RPMI phenol-free, 10% FBS,2mM L-glutamine). When the cells reached 80% confluency, transfection with receptor using FuGENE 6 in Opti-MEM medium was accomplished according to the manufacturer’s instruction. After 48h of transfection, stably transfected cells were cultured in a growth medium containing an antibiotic (G418 500 µg/mL). Only cells with the resistance gene (resistance to G418), which had been transfected together with the DNA for PRA and PRB were able to grow in this medium. Consequently, growing cell clones were selected for further steps as stable transfectants. The CHO cells stably transfected with the expression of PRA or PRB were transiently transfected with promoter MMTV/LUC vectors. […]
After 24h incubation of cells with tested compounds, luciferase activity was measured using a VICTOR™ X Multilabel Plate Reader -Perkin Elmer.

[2] = target: T2, human estrogen receptor β (Homo sapiens, UniProt Q92731); experiment: Competitive binding, human estrogen receptor β; settings: ERβ, full length
T2 construct: coding for the full length human estrogen receptors α and β, respectively, were obtained from GenScript; made in house; host or cells: HI (Hi5) insect cells, baculovirus; cellular lysate
Description: as §1
There are two subtypes of estrogen receptors (ER), ERα and ERβ, coded in different genes. Plasmids pFastBac1-ERa and pFastBac1-ERb, coding for the full length human estrogen receptors α and β, respectively, were obtained from GenScript. […]

[3] = target: T3, human progesterone receptor ligand binding domain (PR-LBD) (Homo sapiens, UniProt P06401); experiment: Competitive binding, PR ligand binding domain; settings: compared to progesterone
T3 construct: purchased Thermo Fisher Scientific
Description: as §1

human PRA, sequence (P06401 165-933): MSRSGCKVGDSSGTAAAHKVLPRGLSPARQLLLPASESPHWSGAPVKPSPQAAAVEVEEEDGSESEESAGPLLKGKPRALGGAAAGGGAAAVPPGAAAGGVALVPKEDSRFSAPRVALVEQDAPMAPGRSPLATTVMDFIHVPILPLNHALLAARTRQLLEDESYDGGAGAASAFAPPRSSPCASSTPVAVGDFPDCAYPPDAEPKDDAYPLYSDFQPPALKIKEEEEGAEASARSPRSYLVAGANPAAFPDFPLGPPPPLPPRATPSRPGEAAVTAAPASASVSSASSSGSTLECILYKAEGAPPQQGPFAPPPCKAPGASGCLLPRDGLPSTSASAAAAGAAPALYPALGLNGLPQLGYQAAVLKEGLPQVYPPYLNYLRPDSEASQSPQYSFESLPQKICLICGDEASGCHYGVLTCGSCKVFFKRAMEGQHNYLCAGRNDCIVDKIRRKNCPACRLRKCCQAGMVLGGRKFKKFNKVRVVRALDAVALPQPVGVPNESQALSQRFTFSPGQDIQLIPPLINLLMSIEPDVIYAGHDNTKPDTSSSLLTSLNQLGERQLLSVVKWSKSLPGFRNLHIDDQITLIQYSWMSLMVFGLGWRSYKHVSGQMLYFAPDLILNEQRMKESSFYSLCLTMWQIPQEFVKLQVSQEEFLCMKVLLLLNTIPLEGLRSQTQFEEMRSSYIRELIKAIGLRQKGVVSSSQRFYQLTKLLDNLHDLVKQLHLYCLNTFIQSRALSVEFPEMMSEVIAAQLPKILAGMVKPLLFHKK
T3 sequence (P06401 679-913 limits assumed): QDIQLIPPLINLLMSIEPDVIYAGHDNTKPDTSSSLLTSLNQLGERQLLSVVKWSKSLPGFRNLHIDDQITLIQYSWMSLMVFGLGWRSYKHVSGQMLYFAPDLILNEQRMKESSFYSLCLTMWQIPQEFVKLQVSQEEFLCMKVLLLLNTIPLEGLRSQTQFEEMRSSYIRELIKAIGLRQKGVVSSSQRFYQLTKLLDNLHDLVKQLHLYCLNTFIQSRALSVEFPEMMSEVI
T2 sequence (Q92731 whole entry): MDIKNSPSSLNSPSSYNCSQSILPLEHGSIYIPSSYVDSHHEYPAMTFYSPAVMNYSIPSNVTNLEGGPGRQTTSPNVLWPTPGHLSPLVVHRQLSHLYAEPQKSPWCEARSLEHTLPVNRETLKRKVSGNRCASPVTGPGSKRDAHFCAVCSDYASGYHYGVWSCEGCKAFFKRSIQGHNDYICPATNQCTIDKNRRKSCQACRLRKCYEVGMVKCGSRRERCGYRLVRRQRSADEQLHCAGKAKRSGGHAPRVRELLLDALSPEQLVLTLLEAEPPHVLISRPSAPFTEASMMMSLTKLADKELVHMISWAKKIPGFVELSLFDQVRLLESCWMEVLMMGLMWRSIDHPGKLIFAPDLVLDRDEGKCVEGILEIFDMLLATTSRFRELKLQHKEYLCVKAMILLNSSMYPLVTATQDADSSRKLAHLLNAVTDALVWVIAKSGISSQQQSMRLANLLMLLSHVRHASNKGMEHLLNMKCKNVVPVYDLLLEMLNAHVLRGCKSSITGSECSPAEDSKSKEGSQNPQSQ

C[C@]12C[C@H](c3ccc(-c4ccoc4)cc3)C3=C4CCC(=O)C=C4CC[C@H]3[C@@H]1CC[C@]21OCCC1=C(F)F [EC313]
Comp. Coefficient (GR; EC313 relative to Dexamethasone): 12 and 11.8
IC50 (GR; tritiated ligand displacement): 226 ± 9 nM
androgenic / anti-androgenic effects (prostate plus seminal vesicle weights) [1]: neither significant androgenic nor anti-androgenic effects
IC50 (human PRA; Promegestone 35 nM, read-out: IC50, antagonism of Promegestone-induced reporter gene expression): 7.96 nM and 8 nM
EC50 (human PRA; weak agonistic activity, in the range of the maximum concentration tested): ~1000 nM
competitive displacement of [3H]-estradiol [2]: did not cause any competitive displacement
affinity to the ligand binding domain [3]: the same as that of progesterone
